# According to patent US6103709A (priority 1998, dated 2000):
# Key:
# [1] = tested on: VDRnuc; test: Genomic response (summary classification); conditions: Yes/No, Tables 1 and 6
# [2] = tested on: vitamin D-deficient chick; test: Intestinal Ca2+ absorption (ICA) in vitamin D-deficient chick; type: in vivo; conditions: i.m.; for Classic Vit D Responses ICA: relative to 100 pmol 1α,25(OH)2 D3 = 100%, 12 h before assay; for ICA (in words): vitamin D-deficient chick
# Protocol: A primary fundamental physiological property of vitamin D and particularly 1α,25(OH)2 D3 is its ability to stimulate the intestinal absorption of calcium and facilitate the availability of dietary calcium to the organism. Intestinal absorption of the calcium is measured by the intestinal calcium absorption (ICA) assay, developed in the model of vitamin-D deficient chicks. The ICA assay was used to determine the relative capability of the tested analog to stimulate intestinal Ca^2+ absorption.
# (§1) Results of the testing of the analogs of the invention in vivo by the ICA and IBM assays are shown in FIG. 9 which illustrates the capability of analogs LO, EV and HR to stimulate intestinal Ca^2+ absorption (ICA) and bone Ca^2+ mobilizing activity (BCM). In this study, the analogs of 1α,25(OH) were given i.m. to vitamin D-deficient chicks 12 hours before the assay began. The activity produced by 100 pmol of 1α,25(OH)2 D3 was set to be 100% for both ICA and BCM. The dose of the analogs required to achieve a biological response for either ICA or BCM equivalent to the 100 pmol dose of 1α,25(OH)2 D3 was calculated and converted to a percentage. Results are expressed as mean +SE of groups of seven chicks. Each assay included a negative control (-D), that is no vitamin D was present, and a positive control, where vitamin D3 (+D3) was present in 3.25 nmol. […] 1α,25(OH)2 D3 and analogs LO [14α,15α-methano-1α,25(OH)2 D3 ], EV [22-(m(dimethylhydroxymethyl)phenyl)-23,24,25,26,27-pentanor-1α-OH-D3 ] and HR [(22R)-1,25(OH)2 -22,23-diene-D3 ] were administered in 0.0065, 0.065, 0.65 and 6.5 nmol as shown.
# (§2) In Vivo Assays of Intestinal Calcium Absorption and Bone Calcium Mobilization
# (§3) This example describes assays used for determination of analogs biological activity in intestinal calcium absorption (ICA) and bone calcium mobilization (BCM) assays.
# (§4) ICA and BCM were measured in vivo in the vitamin D-deficient chick model system according to Biochem. Pharmacol., 18: 2347 (1969).
# (§5) Twelve hours before assay, the chickens, which had been placed on a zero-calcium diet 48 h before assay, were injected intramuscularly with the vitamin metabolite 1α,25(OH)2 D3 or analog (1-10,000 pmoles) dissolved in 0.1 mL of ethanol/1,2-propanediol (1:1, v/v). At the time of assay, 4.0 mg of ^40 Ca^2+ +5 μCi of ^45 Ca^2+ (New England Nuclear) were placed in the duodenum of the birds lightly anesthetized with ether. After 30 min, the birds were decapitated and the blood was collected.
# The radioactivity content, which is a measure of ICA, of 0.2 mL of serum was measured in a liquid scintillation counter (Beckman LS8000) to determine the amount of ^45 Ca^2+ absorbed.
# [3] = tested on: vitamin D-deficient chick; test: Bone Ca2+ mobilizing activity (BCM) in vitamin D-deficient chick; type: in vivo; conditions: i.m.; for Classic Vit D Responses BCM: relative to 100 pmol 1α,25(OH)2 D3 = 100%, 12 h before assay; for BCM (in words): vitamin D-deficient chick
# Protocol: The bone calcium mobilizing (BCM) assay is also conducted in the vitamin D-deficient chick. The BCM assay determines the relative ability of the tested analog to mobilize bone calcium. The natural hormone 1α,25(OH)2 D3 is very potent in the BCM assay. For example, when 1α,25(OH)2 D3 in inappropriate amounts are used as a drug in human patients, the patient may become hypercalcemic and eventually hypercalciuria with nephrolithiasis and renal failure may develop. The BCM assay was used to determine the relative activity of the analogs of the invention to stimulate bone Ca^2+ mobilization.
# as §1, §2, §3, §4, §5
# BCM activity was estimated from the increase of total serum calcium concentration, as determined by atomic absorption spectrophotometry.
# [4] = target: T1, human vitamin D-binding protein (hDBP) (Homo sapiens, UniProt P02774); test: Relative Competitive Index assay, vitamin D-binding protein; conditions: for Vit D Binding Protein (RCI): RCI of 1α,25(OH)2 D3 set to 100, 4° C., pH 7.4; for DBP binding (in words): compared with 1α,25(OH)2 D3; for Binding to DBP relative to 1α,25(OH)2 D3 (RCI, FIG. 7): 1α,25(OH)2 D3 = 100%, mean of three determinations
# T1 sequence (P02774 17-474): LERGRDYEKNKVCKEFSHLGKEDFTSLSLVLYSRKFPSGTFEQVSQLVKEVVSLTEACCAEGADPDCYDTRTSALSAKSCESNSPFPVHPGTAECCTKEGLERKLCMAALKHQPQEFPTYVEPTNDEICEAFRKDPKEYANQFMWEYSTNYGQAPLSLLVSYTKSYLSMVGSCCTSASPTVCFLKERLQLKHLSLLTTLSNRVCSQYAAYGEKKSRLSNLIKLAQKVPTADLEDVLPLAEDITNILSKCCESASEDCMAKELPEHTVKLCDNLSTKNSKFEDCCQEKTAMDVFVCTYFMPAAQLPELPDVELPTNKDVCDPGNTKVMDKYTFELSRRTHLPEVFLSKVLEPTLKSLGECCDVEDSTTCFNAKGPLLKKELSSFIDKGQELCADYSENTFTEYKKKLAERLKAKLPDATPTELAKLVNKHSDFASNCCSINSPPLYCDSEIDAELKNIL
# Excerpt: The compared analogs are 14α,15α-methano-1α,25(OH)2 D3 (LO), 22(m(dimethylhydroxymethyl)phenyl)-23,24,25,26,27-pentanor-1α- OH-D3 (EV) and (22R)-1,25(OH)2 -22,23,diene-D3 (HR), all conformationally flexible genomic agonists. By definition the RCI for 1α,25(OH)2 D3 is set to 100%. The data seen in FIG. 7 represent the mean of three determinations.
# Vitamin D-Binding Protein Assay Relative Competitive Index
# This example describes a Relative Competitive Index Assay used for determination of analogs binding affinity to vitamin D-binding protein.
# Phase separation was then obtained by the addition of 0.5 ml of cold dextran-coated charcoal.
# The data was plotted as [competitor]/[[^3 H]25(OH)D3 ] vs. 1/[fraction bound]. The RCI was calculated as [slope of competitor]/[slopefor 25(OH)D3 ]×100. Results are seen in FIG. 7. Although each analog was assayed in competition with [^3 H]25(OH)D3, the data are expressed as relative to the binding of 1α,25(OH)2 D3, with its RCI set to 100.
# [5] = tested on: VDRmem; test: Rapid response (summary classification); conditions: for Rapid Response: Yes/No, Tables 1 and 6
# [6] = tested on: rapid responses (VDRmem); test: Antagonist function (summary classification); conditions: Yes/No, Tables 1 and 6
Vit D Binding Protein (RCI) [4],"RCI for DBP, times greater than 1α,25(OH)2 D3 ([4]; relative to reference 1α,25(OH)2 D3)","Binding to DBP relative to 1α,25(OH)2 D3 (RCI, FIG. 7) [4]",Structure (SMILES),Genomic Response [1],Classic Vit D Responses ICA [2],Classic Vit D Responses BCM [3],Rapid Response [5],Antagonist [6],ICA (in words) [2],BCM (in words) [3],DBP binding (in words) [4],genomic and/or rapid responses elicited (in words) [5]
1980,,,C=C1/C(=C\C=C2/CCC[C@]3(C)[C@@H]([C@H](C)Cc4ccc(O)cc4)CC[C@@H]23)C[C@@H](O)C[C@@H]1O [DF],Yes,0.04%,0.08%,Yes,No,,,,
980,,,C=C1/C(=C\C=C2/CCC[C@]3(C)[C@@H]([C@H](C)Cc4cccc(O)c4)CC[C@@H]23)C[C@@H](O)C[C@@H]1O [DE],Yes,0.3%,1.0%,Yes,No,show stimulating activity in both ICA and BCM assays,show stimulating activity in both ICA and BCM assays,,
"211,000",2110 times,,C=C1CC[C@H](O)C/C1=C/C=C1\CCC[C@]2(C)[C@@H]([C@H](C)Cc3ccc(O)cc3)CC[C@@H]12 [JX],Yes,< 0.05%,< 0.05%,Yes,No,,,binds very tightly to DBP,
11,,,C=C1/C(=C\C=C2/CCC[C@]3(C)[C@@H]([C@H](C)C=C=CC(C)(C)O)CC[C@@H]23)C[C@@H](O)C[C@@H]1O [HQ],Yes,2.5%,1.0%,Yes,No,,,"lower than 1α,25(OH)2 D3",
"132,000",,,C=C1CC[C@H](O)C/C1=C/C=C1\CCC[C@]2(C)[C@@H]([C@H](C)Cc3cccc(O)c3)CC[C@@H]12 [JY],Yes,< 0.05%,< 0.05%,Yes,No,,,,
48,,48%,C=C1/C(=C\C=C2/CCC[C@]3(C)[C@@H]([C@H](C)C=C=CC(C)(C)O)CC[C@@H]23)C[C@@H](O)C[C@@H]1O [HR],Yes,12%,0.6%,Yes,No,,,"lower than 1α,25(OH)2 D3",
60,,60%,C=C1/C(=C\C=C2/CCC[C@]3(C)[C@@H]([C@H](C)CCCC(C)(C)O)C[C@@H]4C[C@@]243)C[C@@H](O)C[C@@H]1O [LO],Yes,30%,,Yes,No,reasonable stimulator of intestinal Ca^2+ absorption (ICA),highly effective stimulator of bone Ca^2+ mobilizing activity (BCM),"lower than 1α,25(OH)2 D3",

# Second part, the compound before the results:
Structure (SMILES),Vit D Binding Protein (RCI) [4],"RCI for DBP, times greater than 1α,25(OH)2 D3 ([4]; relative to reference 1α,25(OH)2 D3)","Binding to DBP relative to 1α,25(OH)2 D3 (RCI, FIG. 7) [4]",Genomic Response [1],Classic Vit D Responses ICA [2],Classic Vit D Responses BCM [3],Rapid Response [5],Antagonist [6],ICA (in words) [2],BCM (in words) [3],DBP binding (in words) [4],genomic and/or rapid responses elicited (in words) [5]
C=C1/C(=C\C=C2/CCC[C@]3(C)[C@@H]([C@H](C)CCCC(C)(C)O)CC[C@@H]23)C[C@@H](O)C[C@H]1O [HL],,,,No,< 0.1%,< 0.3%,No,Yes and blocks or inhibits the action of agonist for rapid responses,,,,
C[C@H](CCCC(C)(C)O)[C@H]1CC[C@H]2C3=CC=C4C[C@@H](O)C[C@H](O)[C@@]4(C)[C@@H]3CC[C@]12C [JN],-0.7,,,No,2.1%,1.0%,Yes,No,,,"lower than 1α,25(OH)2 D3",elicit solely rapid responses
C[C@H](CCCC(C)(C)O)[C@H]1CC[C@H]2C3=CC=C4C[C@@H](O)C[C@H](O)[C@@]4(C)[C@H]3CC[C@]12C [JO],2.0,,,No,0.6%,0.03%,Yes,No,,,"lower than 1α,25(OH)2 D3",elicit solely rapid responses
C[C@H](CCCC(C)(C)O)[C@H]1CC[C@H]2C3=CC=C4C[C@@H](O)C[C@H](O)[C@]4(C)[C@@H]3CC[C@]12C [JP],-5.0,,,No,0.5%,0.8%,Yes,No,,,"lower than 1α,25(OH)2 D3",elicit solely rapid responses
CC1=C(/C=C\C2=CCC[C@@]3(C)[C@@H]2CC[C@@H]3[C@H](C)CCCC(C)(C)O)C[C@@H](O)C[C@@H]1O [GF],2,,,Yes,1.5%,< 0.1%,Yes,No,,,"lower than 1α,25(OH)2 D3",
C[C@H](CCCC(C)(C)O)[C@H]1CC[C@H]2C3=CC=C4C[C@@H](O)C[C@H](O)[C@]4(C)[C@H]3CC[C@]12C [JM],-0.3,,,No,1.8%,0.8%,Yes,No,,,"lower than 1α,25(OH)2 D3",elicit solely rapid responses
